Laboratory results from ChEMBL document CHEMBL5291721, “A preclinical secondary pharmacology resource illuminates target-adverse drug reaction associations of marketed drugs” (Nat Commun, 2023).

Assays:
[1] = target: T1, Amine oxidase [flavin-containing] A (Homo sapiens, UniProt P21397); format: functional
T1 sequence (P21397 whole entry): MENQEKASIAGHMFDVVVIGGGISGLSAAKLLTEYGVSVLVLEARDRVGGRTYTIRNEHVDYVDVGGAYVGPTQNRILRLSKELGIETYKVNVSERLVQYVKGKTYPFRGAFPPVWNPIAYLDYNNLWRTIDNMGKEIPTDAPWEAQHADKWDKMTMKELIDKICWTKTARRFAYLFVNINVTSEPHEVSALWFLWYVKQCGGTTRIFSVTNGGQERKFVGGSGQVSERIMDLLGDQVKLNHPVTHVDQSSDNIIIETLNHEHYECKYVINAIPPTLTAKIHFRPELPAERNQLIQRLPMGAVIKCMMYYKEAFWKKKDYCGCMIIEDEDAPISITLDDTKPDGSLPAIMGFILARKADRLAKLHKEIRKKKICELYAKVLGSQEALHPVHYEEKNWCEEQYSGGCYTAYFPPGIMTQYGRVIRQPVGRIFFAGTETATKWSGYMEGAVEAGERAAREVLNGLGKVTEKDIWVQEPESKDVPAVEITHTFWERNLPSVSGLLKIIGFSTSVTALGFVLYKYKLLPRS

Bile salt export pump = Bile salt export pump (Homo sapiens, UniProt O95342); format: functional
Motilin receptor = Motilin receptor (Homo sapiens, UniProt O43193)
[2] = target: 5-hydroxytryptamine receptor 2B (Homo sapiens, UniProt P41595); format: functional, cell-based
[3] = target: Sodium-dependent noradrenaline transporter (Homo sapiens, UniProt P23975)
D(3) dopamine receptor = D(3) dopamine receptor (Homo sapiens, UniProt P35462)
Adenosine receptor A3 = target: T2, Adenosine receptor A3 (Homo sapiens, UniProt P0DMS8)
T2 sequence (P0DMS8 whole entry): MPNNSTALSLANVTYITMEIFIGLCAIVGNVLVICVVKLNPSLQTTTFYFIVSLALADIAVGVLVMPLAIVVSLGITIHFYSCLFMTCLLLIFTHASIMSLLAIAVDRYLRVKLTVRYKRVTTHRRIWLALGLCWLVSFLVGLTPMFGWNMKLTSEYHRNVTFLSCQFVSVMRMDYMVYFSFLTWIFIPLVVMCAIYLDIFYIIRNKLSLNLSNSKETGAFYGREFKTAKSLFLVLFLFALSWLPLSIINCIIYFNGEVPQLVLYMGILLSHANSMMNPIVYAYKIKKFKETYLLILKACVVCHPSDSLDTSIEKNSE

[4] = target: 3',5'-cyclic-AMP phosphodiesterase 4D (Homo sapiens, UniProt Q08499); format: functional
[5] = target: T3, Type-1 angiotensin II receptor (Homo sapiens, UniProt P30556)
T3 sequence (P30556 whole entry): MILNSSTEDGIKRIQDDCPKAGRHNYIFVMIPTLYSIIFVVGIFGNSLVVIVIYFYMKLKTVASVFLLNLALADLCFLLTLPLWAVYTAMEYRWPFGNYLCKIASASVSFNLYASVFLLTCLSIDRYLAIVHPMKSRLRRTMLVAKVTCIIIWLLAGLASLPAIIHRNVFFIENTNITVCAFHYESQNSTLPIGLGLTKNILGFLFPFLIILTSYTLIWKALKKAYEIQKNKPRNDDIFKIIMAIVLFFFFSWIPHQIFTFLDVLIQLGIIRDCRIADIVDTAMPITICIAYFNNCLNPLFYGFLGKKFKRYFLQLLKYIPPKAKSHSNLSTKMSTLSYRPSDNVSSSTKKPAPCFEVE

[6] = target: cGMP-inhibited 3',5'-cyclic phosphodiesterase 3A (Homo sapiens, UniProt Q14432); format: functional
[7] = target: Neuronal acetylcholine receptor subunit alpha-4 (Homo sapiens, UniProt P43681)
[8] = target: Delta-type opioid receptor (Homo sapiens, UniProt P41143)
[9] = target: T4, Alpha-2C adrenergic receptor (Homo sapiens, UniProt P18825); format: functional
T4 sequence (P18825 whole entry): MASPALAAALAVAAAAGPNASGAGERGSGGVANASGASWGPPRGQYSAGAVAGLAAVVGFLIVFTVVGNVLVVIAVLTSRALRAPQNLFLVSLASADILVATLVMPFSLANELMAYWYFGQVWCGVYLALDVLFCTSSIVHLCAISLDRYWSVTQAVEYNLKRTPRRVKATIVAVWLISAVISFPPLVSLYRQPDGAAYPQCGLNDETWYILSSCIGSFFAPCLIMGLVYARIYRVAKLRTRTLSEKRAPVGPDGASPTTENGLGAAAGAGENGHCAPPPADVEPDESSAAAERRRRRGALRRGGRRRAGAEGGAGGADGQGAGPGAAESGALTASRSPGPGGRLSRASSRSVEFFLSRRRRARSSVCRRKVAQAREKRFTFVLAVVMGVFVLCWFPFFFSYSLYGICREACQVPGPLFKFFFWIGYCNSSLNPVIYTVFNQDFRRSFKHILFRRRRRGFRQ

[10] = target: T5, 5-hydroxytryptamine receptor 3A (Homo sapiens, UniProt P46098); format: functional
T5 sequence (P46098 whole entry): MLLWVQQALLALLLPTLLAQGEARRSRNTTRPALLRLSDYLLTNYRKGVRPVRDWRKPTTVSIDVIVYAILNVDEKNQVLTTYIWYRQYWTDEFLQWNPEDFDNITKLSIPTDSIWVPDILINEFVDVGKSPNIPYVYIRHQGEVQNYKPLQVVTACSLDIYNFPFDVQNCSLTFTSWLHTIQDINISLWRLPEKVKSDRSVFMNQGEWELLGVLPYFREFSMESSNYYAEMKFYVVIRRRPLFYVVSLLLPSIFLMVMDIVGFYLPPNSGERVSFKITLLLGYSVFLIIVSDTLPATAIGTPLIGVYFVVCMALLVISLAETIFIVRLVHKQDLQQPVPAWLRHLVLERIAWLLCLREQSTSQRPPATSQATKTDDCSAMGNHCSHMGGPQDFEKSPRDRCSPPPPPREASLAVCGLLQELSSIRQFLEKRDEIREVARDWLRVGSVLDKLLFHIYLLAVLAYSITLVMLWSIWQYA
Note: assay procedure not described here.

3',5'-cyclic-AMP phosphodiesterase 4D, sequence (Q08499 whole entry): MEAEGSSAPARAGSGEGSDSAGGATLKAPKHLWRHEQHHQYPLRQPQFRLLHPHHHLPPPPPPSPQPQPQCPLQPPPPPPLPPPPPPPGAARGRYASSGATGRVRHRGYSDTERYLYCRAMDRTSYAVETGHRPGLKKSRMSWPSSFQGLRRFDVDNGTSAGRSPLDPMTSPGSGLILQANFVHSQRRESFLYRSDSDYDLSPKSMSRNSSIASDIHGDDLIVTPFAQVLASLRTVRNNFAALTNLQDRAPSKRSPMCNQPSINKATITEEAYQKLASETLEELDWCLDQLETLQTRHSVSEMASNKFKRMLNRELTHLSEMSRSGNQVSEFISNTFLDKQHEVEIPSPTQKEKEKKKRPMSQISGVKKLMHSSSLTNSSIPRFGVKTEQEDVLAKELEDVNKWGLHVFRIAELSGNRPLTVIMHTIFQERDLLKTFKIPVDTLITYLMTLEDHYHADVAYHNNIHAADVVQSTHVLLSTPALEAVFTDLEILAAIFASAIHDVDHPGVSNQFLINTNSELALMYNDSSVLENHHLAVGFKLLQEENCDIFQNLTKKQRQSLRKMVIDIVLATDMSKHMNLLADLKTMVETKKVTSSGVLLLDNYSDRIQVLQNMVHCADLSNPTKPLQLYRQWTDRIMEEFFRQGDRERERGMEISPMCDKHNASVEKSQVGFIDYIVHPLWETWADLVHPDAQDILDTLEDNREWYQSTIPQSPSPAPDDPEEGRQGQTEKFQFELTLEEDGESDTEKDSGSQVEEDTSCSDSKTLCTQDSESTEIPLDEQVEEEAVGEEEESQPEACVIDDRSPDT
cGMP-inhibited 3',5'-cyclic phosphodiesterase 3A, sequence (Q14432 whole entry): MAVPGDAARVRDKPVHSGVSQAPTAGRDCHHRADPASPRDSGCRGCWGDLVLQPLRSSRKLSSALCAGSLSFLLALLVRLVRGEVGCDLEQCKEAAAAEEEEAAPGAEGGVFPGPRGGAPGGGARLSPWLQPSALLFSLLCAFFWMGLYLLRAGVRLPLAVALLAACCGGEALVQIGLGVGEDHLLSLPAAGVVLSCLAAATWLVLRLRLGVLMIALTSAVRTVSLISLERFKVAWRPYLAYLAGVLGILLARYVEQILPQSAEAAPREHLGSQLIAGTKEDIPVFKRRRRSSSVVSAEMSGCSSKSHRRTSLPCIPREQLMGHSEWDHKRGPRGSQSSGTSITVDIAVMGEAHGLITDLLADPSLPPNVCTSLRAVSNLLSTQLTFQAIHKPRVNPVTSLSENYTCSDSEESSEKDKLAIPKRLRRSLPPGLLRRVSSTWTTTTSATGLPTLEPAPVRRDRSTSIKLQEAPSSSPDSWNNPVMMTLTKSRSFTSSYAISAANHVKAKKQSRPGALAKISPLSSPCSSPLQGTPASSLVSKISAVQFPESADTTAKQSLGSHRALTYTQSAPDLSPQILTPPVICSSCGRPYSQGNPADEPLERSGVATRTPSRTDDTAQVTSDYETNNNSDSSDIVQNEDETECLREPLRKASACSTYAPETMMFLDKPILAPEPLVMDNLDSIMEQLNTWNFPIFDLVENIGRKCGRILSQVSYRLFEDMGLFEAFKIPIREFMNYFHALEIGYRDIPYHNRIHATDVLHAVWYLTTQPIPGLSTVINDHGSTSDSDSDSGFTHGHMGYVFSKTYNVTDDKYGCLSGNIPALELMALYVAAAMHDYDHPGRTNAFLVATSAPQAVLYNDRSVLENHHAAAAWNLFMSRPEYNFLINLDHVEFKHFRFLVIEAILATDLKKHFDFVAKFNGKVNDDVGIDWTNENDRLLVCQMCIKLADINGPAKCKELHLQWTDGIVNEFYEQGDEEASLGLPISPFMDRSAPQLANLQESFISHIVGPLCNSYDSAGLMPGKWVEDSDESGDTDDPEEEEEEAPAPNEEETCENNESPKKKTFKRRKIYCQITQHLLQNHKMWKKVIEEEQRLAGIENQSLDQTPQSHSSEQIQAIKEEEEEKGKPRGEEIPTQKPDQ
Neuronal acetylcholine receptor subunit alpha-4, sequence (P43681 whole entry): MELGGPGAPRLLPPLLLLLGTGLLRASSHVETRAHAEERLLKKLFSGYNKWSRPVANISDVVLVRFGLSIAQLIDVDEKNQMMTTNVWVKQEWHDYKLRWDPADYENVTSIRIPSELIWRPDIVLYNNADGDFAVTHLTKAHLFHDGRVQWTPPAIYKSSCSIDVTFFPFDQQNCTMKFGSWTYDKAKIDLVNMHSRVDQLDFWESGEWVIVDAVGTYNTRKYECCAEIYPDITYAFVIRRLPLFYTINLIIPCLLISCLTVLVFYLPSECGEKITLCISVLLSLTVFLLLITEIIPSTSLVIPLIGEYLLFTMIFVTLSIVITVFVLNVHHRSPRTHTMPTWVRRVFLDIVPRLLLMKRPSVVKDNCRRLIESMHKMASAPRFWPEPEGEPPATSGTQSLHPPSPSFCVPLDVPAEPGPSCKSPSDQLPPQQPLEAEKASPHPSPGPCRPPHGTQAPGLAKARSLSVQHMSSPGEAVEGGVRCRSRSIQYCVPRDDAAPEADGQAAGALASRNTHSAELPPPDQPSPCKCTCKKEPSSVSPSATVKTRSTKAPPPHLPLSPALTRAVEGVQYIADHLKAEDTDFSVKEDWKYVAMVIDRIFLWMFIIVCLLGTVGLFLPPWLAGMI
5-hydroxytryptamine receptor 2B, sequence (P41595 whole entry): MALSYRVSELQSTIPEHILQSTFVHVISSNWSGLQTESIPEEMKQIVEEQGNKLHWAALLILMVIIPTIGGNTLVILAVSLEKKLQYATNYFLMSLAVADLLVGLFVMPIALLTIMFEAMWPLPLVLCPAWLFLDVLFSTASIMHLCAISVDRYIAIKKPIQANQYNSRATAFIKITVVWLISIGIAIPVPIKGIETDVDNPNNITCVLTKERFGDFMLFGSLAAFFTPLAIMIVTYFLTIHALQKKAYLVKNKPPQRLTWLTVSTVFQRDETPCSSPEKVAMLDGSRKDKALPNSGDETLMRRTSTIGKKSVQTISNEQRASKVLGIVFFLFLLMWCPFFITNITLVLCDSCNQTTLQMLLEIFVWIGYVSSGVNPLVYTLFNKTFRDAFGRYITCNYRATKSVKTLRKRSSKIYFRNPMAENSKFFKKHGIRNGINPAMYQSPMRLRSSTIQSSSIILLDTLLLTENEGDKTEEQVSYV
Motilin receptor, sequence (O43193 whole entry): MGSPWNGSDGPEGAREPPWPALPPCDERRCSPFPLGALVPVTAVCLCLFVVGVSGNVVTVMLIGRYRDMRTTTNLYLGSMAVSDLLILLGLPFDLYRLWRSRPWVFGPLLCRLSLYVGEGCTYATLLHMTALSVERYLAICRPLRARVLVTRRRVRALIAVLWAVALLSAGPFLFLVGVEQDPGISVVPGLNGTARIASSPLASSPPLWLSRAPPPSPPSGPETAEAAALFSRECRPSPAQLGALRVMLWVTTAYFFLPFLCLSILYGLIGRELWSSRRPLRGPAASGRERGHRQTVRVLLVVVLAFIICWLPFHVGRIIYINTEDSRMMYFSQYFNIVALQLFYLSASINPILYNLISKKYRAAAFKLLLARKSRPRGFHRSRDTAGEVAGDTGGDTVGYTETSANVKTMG
Bile salt export pump, sequence (O95342 whole entry): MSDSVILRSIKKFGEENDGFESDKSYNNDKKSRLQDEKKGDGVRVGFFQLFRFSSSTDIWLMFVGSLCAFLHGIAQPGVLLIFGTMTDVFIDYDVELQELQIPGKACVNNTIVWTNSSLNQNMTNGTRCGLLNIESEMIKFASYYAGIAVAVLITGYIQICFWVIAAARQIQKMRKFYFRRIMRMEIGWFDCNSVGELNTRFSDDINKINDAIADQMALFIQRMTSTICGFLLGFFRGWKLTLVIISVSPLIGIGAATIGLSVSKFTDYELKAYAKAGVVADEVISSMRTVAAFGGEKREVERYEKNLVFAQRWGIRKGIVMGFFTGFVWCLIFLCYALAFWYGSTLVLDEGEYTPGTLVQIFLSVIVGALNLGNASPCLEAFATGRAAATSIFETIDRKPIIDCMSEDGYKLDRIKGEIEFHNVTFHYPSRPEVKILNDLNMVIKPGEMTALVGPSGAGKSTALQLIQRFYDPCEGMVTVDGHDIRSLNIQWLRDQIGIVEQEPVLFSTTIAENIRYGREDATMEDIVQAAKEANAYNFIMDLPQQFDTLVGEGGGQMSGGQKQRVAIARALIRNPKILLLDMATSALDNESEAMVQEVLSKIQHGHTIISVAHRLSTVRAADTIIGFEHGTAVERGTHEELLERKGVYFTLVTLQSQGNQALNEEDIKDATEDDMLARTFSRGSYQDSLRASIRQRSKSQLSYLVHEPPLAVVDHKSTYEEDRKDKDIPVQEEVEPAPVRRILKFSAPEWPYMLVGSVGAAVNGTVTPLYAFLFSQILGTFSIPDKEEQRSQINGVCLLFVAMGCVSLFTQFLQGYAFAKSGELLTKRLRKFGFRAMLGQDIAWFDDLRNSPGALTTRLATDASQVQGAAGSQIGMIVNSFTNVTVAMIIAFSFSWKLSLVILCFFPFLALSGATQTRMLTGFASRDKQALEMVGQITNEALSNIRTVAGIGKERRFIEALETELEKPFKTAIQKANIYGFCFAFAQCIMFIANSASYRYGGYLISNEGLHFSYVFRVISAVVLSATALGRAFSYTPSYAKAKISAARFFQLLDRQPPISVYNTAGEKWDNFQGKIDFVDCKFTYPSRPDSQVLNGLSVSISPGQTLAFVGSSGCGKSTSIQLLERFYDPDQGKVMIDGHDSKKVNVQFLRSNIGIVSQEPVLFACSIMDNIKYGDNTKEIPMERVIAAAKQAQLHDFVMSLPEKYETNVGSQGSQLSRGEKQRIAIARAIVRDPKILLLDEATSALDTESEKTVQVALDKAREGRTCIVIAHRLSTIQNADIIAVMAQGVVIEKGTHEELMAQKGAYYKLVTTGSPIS

SMILES	AC50 [1] [µM]	AC50 (Bile salt export pump) [µM]	AC50 (Motilin receptor) [µM]	AC50 [2] [µM]	AC50 [3] [µM]	AC50 (D(3) dopamine receptor) [µM]	AC50 (Adenosine receptor A3) [µM]	AC50 [4] [µM]	AC50 [5] [µM]	AC50 [6] [µM]	AC50 [7] [µM]	AC50 [8] [µM]	AC50 [9] [µM]	AC50 [10] [µM]
CC[N+](CC)(CCNC(=O)C(=O)NCC[N+](CC)(CC)Cc1ccccc1Cl)Cc1ccccc1Cl [AMBENONIUM]	> 30	> 300	> 30	> 30	10	> 30	> 30	> 30	> 30	> 30	> 30	> 30	2.5	> 30
CC(C)/N=c1\cc2n(-c3ccc(Cl)cc3)c3ccccc3nc-2cc1Nc1ccc(Cl)cc1 [CLOFAZIMINE]	> 30	12	> 30	> 30	> 30	> 30	> 30	17.5	> 30	> 30	> 30	26	13	> 30
NCCCCCC(=O)O [AMINOCAPROIC ACID]	> 10	> 300	> 10	> 10	20.4	> 30	> 10	> 30	> 10	> 30	> 10	> 30	> 10	> 30
NCCCNCCSP(=O)(O)O [AMIFOSTINE]	> 30	> 300	> 30	> 30	> 30	> 30	> 30	> 30	> 30	> 30	> 30	> 30	> 30	> 30
CC(C)C[C@H](NC(=O)[C@H](Cc1ccccc1)NC(=O)c1cnccn1)B(O)O [BORTEZOMIB]	> 30	> 300	> 30	> 30	> 30	> 30	> 30	> 30	> 30	> 30	> 30	> 30	> 30	> 30
CC(=O)SCC(Cc1ccccc1)C(=O)NCC(=O)OCc1ccccc1 (configuration not stated) [RACECADOTRIL]	> 30	21	> 30	> 30	> 10	> 30	> 30	> 30	> 30	> 30	> 30	> 30	> 30	> 30
OCCOCCN1CCN(C(c2ccccc2)c2ccc(Cl)cc2)CC1 (configuration not stated) [HYDROXYZINE]	> 10	270	> 10	> 10	> 10	0.29	> 30	> 30	> 30	> 30	> 10	> 30	2.3	> 30
CN1CC2c3ccccc3Oc3ccc(Cl)cc3C2C1 (configuration not stated) [ASENAPINE]	> 30	270	> 30	> 30	17	0.0044	> 30	> 30	> 30	> 30	> 30	> 30	0.3	18
COc1cc2c(cc1OC)C1CC(=O)C(CC(C)C)CN1CC2 (configuration not stated) [TETRABENAZINE]	> 30	74	> 30	> 30	> 30	> 30	> 30	> 30	> 30	> 30	> 30	> 30	> 30	> 30
CCOC(=O)[C@H](CCc1ccccc1)N[C@@H](C)C(=O)N1Cc2ccccc2C[C@H]1C(=O)O	> 10	100	> 10	> 10	> 10	> 10	> 30	> 10	> 30	> 10	> 10	> 10	> 10	> 10
O=C(O)[C@H]1/C(=C/CO)O[C@@H]2CC(=O)N21 [CLAVULANIC ACID]	> 30	> 300	> 30	> 30	> 30	> 30	> 30	> 30	> 30	> 30	> 30	> 30	> 30	> 30
Cc1c(C)c2c(c(C)c1O)CCC(C)(COc1ccc(CC3SC(=O)NC3=O)cc1)O2 (configuration not stated) [TROGLITAZONE]	> 30	5.01	> 30	> 30	15	> 30	8.48	2.88	15.5	6.19	> 30	> 30	24	> 30
C[C@H](CCC(=O)O)[C@H]1CC[C@H]2[C@@H]3[C@H](O)C[C@@H]4C[C@H](O)CC[C@]4(C)[C@H]3CC[C@]12C [CHENODIOL]	> 30	13	> 30	> 30	> 30	> 30	> 30	> 30	> 30	> 30	> 30	> 30	> 30	> 30
